Article PMC5712788, “DM9 Domain Containing Protein Functions As a Pattern Recognition Receptor with Broad Microbial Recognition Spectrum” (Frontiers in Immunology, 2017)

Target: T1, CgDM9CP-1 (rCgDM9CP-1) (Magallana gigas, UniProt K1QRB6)
T1 construct: gene CGI_10011001; recombinant, E. coli Transetta (DE3); two DM9 domains; mutants in pET-28a with N-terminal 6xHis; 5MH2 is D22A, 5MH3 is K43A
T1 sequence (K1QRB6 1-143): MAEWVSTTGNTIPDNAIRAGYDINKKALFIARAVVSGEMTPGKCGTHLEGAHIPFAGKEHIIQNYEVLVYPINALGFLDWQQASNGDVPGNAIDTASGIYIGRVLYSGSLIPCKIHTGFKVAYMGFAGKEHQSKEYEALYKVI
Experiment: ITC
Format: binding
Conditions: 25°C, PBS (pH 7.2 in table, 7.4 in methods), N = 1
Text: ITC on CgDM9CP-1 (rCgDM9CP-1)

With `OC[C@H]1OC(O)[C@@H](O)[C@@H](O)[C@@H]1O` (stereo partly drawn) [D-mannose] the Kd was 123 ± 19.7 µM and the Value was 8.16 ± 0.19 10^3 M^−1.
